Test results: paper PMC12767106, “In Situ Assembly of Transformable Monopeptide on Activated Neutrophils Attenuates NETs‐Induced Hepatocellular Carcinoma Metastasis by Disrupting NE Nuclear Translocation” (Advanced Science, 2025)

Tests used:
[1] = system: resting neutrophils; assay: CCK-8 cytotoxicity; format: cell-based, mouse; settings: CCK-8, 24 h, different dosages
Description: The supernatant was discarded, and the red blood cells were lysed with RBC lysate. The neutrophils were then washed with PBS again, and the supernatant was discarded. The cells were resuspended in culture medium and used for further experiments. […]
(§1) 10 minutes to remove unbound particles, and the supernatant was collected. […]
(§2) In vitro cytotoxicity assay
(§3) The CCK-8 assay was used to assess the cell viability of Hepa1-6/luc, resting neutrophils, and activated neutrophils. Following the seeding of 1*10^4 cells per well on a 96-well plate, the cells were subjected to different dosages of FTP-NPs and NFTP-NPs (medium: DMSO = 99:1 v/v). After 24 hours, the cells were incubated for two hours with 10 µL of CCK-8 solution. Finally, a microplate reader (Tecan Infinite M200, Switzerland) was used to measure cell viability based on the absorbance values.
(§4) Targeting the capability of NEBP
(§5) To evaluate the targeting capability of NE-binding peptide (NEBP), the harvested resting neutrophils and […]

[2] = system: Hepa1-6/luc murine HCC cells; assay: CCK-8 cytotoxicity; format: cell-based, mouse; settings: CCK-8, 24 h, different dosages
Description: as §1, §2, §3, §4, §5

[3] = target: T1, NE protein (Homo sapiens, UniProt P08246); assay: Transformation kinetics by PpIX fluorescence after addition of NE protein; format: physicochemical; settings: 24 h incubation, NE protein/peptide ligand about 1/1000, emission about 635 nm
T1 construct: purchased AkrivisBio MA-0156
T1 sequence (P08246 30-267): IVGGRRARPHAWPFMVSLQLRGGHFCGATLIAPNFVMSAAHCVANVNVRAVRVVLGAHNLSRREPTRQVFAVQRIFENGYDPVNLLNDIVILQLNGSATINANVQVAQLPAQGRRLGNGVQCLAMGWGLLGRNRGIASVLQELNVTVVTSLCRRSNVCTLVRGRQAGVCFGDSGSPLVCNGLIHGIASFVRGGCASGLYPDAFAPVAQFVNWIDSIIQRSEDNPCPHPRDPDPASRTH
Description: Submitted to Advanced Science temperature. Following the incubation, 10 µL of the solution was added to a copper mesh at 0 and 24 h. Filter paper was used to remove any extra droplets after an overnight stay. The samples were then stained for five minutes with uranyl acetate and then rinsed for one minute with water (10 µL). Finally, dried samples were observed by TEM (Talos 120C, Thermo Fisher Scientific, USA). DLS (Zetasizer Nano ZS, UK) was used to assess the solution for hydrodynamic size and zeta potential at 0 and 24 h following the incubation. Then, the nanofiber structure at 0 h and 24 h after incubation of FTP-NPs was examined with Circular Dichroism (CD) Spectra (Chirascan, UM, Britain). In addition, the variation of fluorescence emission spectra of PpIX by […]
transformation of FTP-NPs.
Pyrene molecules were employed as an indicator to determine the critical aggregation concentration (CAC) of nanoparticles by comparing the fluorescence of their third and first emissive peaks. […] The fluorescence spectra of pyrene (excitation, 335 nm) in different NPs dilutions were recorded. The fluorescence intensity ratio (I3/I1) of the third and first emissive peaks was measured for CAC calculation. […]

In the case of PpIX-GFFVLK-EAIPMSIPPEVK [FTP-NPs], the survival rate [1] is reported as “over 95%”, the survival rate [2] is reported as “over 95%” and the “fluorescence intensity of PpIX after addition of NE protein” value [3] is reported as 78.3%.
